Key:
Assay in all cases: biochemical
5HT2A = 5HT2A (Homo sapiens, UniProt P28223)
D4 = molecular target: T1, D4 (Homo sapiens, UniProt P21917)
T1 sequence (P21917 1-419): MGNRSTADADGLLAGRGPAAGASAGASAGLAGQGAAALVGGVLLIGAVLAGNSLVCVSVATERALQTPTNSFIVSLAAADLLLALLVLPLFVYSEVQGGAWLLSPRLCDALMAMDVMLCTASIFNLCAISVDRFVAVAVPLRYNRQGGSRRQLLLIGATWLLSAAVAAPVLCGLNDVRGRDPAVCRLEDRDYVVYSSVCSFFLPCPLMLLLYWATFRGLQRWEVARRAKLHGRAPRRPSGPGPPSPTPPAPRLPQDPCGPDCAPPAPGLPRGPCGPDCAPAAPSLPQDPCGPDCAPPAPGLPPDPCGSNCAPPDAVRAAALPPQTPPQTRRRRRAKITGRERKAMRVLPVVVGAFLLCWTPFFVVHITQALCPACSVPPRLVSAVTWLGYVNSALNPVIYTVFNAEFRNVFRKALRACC

5HT5A = 5HT5A (Homo sapiens, UniProt P47898)
SERT = SERT (Homo sapiens, UniProt P31645)
H4 = H4 (Homo sapiens, UniProt Q9H3N8)
5HT3 = molecular target: T2, 5HT3 (Homo sapiens, UniProt P46098)
T2 sequence (P46098 1-478): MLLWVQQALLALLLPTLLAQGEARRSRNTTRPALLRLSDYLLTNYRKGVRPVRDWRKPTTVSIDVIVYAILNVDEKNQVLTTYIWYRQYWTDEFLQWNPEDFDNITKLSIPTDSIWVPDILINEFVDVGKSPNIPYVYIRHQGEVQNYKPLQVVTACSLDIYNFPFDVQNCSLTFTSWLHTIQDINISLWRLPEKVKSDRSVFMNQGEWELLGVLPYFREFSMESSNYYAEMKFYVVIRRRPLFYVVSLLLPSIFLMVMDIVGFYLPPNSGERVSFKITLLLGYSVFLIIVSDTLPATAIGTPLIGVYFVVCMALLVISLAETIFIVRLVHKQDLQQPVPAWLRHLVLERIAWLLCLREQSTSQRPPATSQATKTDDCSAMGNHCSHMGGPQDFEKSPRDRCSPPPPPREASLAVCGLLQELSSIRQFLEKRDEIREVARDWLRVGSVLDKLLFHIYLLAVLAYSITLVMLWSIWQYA

5HT2B = 5HT2B (Homo sapiens, UniProt P41595)
5HT7A = 5HT7A (Homo sapiens, UniProt P34969)
H1 = H1 (Homo sapiens, UniProt P35367)
D1 = D1 (Homo sapiens, UniProt P21728)
NOP = NOP (Homo sapiens, UniProt P41146)
5HT2C = molecular target: T3, 5HT2C (Homo sapiens, UniProt P28335)
T3 sequence (P28335 1-458): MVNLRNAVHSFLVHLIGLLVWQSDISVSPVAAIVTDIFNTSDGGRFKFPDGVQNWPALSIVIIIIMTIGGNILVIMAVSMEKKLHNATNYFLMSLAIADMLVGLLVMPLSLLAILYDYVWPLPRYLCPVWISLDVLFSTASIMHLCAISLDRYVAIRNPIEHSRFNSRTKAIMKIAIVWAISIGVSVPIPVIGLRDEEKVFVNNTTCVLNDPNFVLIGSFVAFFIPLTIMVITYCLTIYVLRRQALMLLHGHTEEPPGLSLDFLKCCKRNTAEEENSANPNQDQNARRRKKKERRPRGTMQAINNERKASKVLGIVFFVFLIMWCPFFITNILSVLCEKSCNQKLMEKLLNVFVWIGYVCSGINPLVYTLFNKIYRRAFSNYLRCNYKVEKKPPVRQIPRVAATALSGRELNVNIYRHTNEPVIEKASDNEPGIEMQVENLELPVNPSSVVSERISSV

D2 = D2 (Homo sapiens, UniProt P14416)
5HT6 = 5HT6 (Homo sapiens, UniProt P50406)
D5 = D5 (Homo sapiens, UniProt P21918)
DAT = DAT (Homo sapiens, UniProt Q01959)
5HT1A = molecular target: T4, 5HT1A (Homo sapiens, UniProt P08908)
T4 sequence (P08908 1-422): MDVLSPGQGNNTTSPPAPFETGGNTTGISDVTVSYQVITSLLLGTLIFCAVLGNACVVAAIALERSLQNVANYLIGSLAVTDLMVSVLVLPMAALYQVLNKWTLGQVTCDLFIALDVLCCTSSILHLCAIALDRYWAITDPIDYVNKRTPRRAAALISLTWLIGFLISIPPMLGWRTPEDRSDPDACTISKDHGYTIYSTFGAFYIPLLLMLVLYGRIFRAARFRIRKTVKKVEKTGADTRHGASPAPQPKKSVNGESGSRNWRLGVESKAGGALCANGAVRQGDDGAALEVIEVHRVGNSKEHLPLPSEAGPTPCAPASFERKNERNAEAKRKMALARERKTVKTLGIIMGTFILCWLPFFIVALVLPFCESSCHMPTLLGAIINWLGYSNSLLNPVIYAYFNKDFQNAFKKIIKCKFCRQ

D3 = D3 (Homo sapiens, UniProt P35462)
MOR = MOR (Homo sapiens, UniProt P35372)
5HT1D = 5HT1D (Homo sapiens, UniProt P28221)
DOR = DOR (Homo sapiens, UniProt P41143)
5HT1E = 5HT1E (Homo sapiens, UniProt P28566)
5HT1B = 5HT1B (Homo sapiens, UniProt P28222)

Chain of 5HT7A (P34969 whole entry): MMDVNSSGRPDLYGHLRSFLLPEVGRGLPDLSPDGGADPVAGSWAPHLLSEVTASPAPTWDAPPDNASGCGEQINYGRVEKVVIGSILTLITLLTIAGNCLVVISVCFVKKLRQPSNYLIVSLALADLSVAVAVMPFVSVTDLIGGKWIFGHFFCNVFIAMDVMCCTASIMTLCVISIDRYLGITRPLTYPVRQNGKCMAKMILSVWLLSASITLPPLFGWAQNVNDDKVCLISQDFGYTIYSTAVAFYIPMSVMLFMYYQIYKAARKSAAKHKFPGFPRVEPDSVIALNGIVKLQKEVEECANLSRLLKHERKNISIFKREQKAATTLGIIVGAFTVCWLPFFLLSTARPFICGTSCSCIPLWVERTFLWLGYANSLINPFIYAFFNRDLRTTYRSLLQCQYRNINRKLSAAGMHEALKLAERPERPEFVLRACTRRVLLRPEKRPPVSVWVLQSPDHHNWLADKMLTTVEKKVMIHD
Chain of NOP (P41146 whole entry): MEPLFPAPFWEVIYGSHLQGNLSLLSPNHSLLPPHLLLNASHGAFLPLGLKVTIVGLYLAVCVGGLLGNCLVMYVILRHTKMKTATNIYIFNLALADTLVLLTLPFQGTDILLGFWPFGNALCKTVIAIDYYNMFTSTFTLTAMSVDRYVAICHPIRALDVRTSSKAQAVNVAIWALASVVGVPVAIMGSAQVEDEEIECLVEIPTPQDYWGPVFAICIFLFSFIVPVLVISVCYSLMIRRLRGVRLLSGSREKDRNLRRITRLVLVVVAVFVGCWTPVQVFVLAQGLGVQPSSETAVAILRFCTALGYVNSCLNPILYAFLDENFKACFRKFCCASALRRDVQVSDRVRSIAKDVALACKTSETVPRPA
Chain of 5HT6 (P50406 whole entry): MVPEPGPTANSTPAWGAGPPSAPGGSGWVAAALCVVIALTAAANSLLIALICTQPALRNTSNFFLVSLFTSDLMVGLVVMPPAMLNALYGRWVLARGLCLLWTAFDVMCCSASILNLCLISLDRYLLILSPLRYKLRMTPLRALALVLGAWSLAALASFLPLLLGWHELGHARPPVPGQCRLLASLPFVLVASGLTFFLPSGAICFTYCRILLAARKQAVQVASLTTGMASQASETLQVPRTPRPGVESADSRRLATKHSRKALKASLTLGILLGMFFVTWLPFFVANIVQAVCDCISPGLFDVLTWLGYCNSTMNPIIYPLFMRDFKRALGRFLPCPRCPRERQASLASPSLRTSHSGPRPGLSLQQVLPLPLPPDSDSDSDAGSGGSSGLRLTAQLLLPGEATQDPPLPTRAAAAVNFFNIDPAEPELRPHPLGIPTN
Chain of D2 (P14416 whole entry): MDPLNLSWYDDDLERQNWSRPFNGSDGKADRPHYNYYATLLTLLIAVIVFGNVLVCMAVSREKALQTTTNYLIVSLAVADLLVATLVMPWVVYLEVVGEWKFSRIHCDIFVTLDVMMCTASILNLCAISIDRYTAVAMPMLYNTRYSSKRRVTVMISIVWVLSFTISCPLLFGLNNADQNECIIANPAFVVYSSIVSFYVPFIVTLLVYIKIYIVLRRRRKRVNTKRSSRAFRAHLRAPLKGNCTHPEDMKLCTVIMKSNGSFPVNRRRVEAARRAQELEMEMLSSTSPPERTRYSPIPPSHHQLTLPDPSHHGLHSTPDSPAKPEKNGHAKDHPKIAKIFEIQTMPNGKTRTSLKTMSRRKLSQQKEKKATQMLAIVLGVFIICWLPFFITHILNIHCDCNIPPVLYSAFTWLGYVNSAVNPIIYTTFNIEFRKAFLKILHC
Chain of MOR (P35372 whole entry): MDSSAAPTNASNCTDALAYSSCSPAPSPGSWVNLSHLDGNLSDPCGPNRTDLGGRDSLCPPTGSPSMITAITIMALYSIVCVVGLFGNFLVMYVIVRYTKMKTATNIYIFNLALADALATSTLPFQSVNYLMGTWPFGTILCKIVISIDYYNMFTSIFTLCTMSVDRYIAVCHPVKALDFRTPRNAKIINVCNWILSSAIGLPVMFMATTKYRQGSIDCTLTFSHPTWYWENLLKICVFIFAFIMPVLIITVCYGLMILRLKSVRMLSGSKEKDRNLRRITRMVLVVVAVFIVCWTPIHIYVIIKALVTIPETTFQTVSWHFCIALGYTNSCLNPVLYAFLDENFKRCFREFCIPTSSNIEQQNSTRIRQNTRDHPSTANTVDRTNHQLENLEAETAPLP
Chain of 5HT2A (P28223 whole entry): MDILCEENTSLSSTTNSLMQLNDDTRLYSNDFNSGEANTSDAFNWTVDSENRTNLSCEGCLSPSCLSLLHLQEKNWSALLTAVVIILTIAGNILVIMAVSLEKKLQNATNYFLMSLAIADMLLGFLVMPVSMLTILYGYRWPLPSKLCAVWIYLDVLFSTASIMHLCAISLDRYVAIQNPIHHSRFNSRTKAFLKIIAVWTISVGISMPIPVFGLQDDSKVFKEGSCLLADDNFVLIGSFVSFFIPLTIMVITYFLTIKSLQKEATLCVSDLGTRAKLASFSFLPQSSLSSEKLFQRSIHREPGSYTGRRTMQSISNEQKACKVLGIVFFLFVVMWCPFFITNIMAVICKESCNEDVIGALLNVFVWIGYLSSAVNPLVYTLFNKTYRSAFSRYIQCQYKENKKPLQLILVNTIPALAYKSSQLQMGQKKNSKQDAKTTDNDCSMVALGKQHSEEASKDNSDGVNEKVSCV
Chain of 5HT1E (P28566 whole entry): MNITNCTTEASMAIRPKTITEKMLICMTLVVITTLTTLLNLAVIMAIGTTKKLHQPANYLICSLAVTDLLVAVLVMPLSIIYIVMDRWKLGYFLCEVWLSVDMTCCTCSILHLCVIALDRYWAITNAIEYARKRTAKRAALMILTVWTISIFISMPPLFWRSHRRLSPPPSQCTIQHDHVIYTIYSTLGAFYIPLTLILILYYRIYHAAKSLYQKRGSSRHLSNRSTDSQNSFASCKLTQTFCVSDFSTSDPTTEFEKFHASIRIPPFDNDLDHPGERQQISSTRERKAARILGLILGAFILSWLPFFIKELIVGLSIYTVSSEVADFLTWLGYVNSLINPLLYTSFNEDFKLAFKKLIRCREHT
Chain of SERT (P31645 whole entry): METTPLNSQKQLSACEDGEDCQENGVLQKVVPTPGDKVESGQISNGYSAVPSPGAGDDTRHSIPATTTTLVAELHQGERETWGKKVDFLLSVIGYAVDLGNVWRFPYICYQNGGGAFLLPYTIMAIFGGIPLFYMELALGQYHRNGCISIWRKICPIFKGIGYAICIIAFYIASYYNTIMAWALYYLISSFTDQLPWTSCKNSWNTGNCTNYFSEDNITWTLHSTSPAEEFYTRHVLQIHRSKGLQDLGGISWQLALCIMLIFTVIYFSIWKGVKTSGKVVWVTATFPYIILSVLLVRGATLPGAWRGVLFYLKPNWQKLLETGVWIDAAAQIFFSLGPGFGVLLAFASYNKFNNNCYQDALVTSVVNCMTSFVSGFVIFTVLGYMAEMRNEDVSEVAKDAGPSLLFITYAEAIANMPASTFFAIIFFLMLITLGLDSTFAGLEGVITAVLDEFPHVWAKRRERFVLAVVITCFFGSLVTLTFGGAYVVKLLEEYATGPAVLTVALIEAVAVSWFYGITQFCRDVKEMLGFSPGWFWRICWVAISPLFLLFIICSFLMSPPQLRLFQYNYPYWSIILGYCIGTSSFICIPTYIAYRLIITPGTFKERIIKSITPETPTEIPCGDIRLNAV
Chain of D3 (P35462 whole entry): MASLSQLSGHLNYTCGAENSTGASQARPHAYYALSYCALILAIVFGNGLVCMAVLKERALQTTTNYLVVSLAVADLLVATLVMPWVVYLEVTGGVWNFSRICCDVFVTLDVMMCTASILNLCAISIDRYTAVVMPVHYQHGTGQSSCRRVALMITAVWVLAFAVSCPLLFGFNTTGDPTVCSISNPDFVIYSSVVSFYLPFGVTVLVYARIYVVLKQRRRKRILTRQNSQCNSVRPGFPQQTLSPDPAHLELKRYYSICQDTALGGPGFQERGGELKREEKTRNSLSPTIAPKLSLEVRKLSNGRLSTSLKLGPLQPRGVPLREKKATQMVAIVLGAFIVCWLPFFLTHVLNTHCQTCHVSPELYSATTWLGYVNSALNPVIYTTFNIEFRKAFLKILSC
Chain of DAT (Q01959 whole entry): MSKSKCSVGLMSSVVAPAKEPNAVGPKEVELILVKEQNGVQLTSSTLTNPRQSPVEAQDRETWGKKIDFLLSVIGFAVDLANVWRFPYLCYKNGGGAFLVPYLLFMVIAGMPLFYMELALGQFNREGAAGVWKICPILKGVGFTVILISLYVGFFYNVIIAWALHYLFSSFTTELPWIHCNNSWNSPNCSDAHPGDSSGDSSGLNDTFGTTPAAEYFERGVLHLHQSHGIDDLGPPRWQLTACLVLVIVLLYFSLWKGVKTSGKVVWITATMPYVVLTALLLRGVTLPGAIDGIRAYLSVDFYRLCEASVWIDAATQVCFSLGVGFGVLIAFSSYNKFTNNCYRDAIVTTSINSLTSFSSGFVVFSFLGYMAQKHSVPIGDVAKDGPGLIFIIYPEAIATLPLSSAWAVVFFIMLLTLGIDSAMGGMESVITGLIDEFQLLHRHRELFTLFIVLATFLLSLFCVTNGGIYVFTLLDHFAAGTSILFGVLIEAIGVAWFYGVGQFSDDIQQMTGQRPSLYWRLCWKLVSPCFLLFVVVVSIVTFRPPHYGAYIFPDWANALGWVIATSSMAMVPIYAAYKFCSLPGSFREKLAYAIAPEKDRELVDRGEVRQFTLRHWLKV

In the case of `Cc1cc(-c2cc(F)c(CNC3Cc4ccccc4C3)c(F)c2)cc(-c2ncn[nH]2)c1` [4A], the Ki (5HT2A) is reported as > 10000 nM, the Ki (D4) is reported as 1770 nM and the Ki (5HT5A) is reported as > 10000 nM. The Ki (SERT) was 334 nM, the Ki (H4) was > 10000 nM and the Ki (5HT3) was > 10000 nM. The Ki (5HT2B) was 484 nM, the Ki (5HT7A) was > 10000 nM and the Ki (H1) was > 10000 nM. The Ki (D1) was 1870 nM, the Ki (NOP) was > 10000 nM and the Ki (5HT2C) was > 10000 nM. The Ki (D2) was > 10000 nM, the Ki (5HT6) was > 10000 nM and the Ki (D5) was > 10000 nM. The Ki (DAT) was 497 nM, the Ki (5HT1A) was > 10000 nM and the Ki (D3) was > 10000 nM.

With `Cc1cc(C(N)=O)cc(-c2ccc(CNC3Cc4ccccc4C3)cc2)c1` [3A] the Ki (5HT2A) was > 10000 nM, the Ki (MOR) was 7.8 nM and the Ki (D4) was 27.2 nM. For the same compound, the Ki (5HT5A) was > 10000 nM, the Ki (SERT) was 310 nM and the Ki (H4) was > 10000 nM. The Ki (5HT3) was > 10000 nM, the Ki (5HT2B) was > 10000 nM and the Ki (5HT7A) was 977 nM. For the same compound, the Ki (H1) was > 10000 nM, the Ki (D1) was 1320 nM and the Ki (NOP) was > 10000 nM. The Ki (5HT2C) was 2270 nM, the Ki (D2) was > 10000 nM and the Ki (5HT6) was > 10000 nM. For the same compound, the Ki (D5) was > 10000 nM, the Ki (DAT) was 850 nM and the Ki (5HT1A) was > 10000 nM. For the same compound, the Ki (5HT1D) was > 10000 nM and the Ki (D3) was > 10000 nM.

Compound `Cc1cc(-c2ccc(CNC3Cc4ccccc4C3)cc2)cc(-c2nc[nH]n2)c1` [6A] has a Ki (5HT2A) of 1000 nM, a Ki (MOR) of 4.2 nM and a Ki (D4) of 1770 nM. It also gave a Ki (5HT5A) of 3940 nM, a Ki (DOR) of 98 nM and a Ki (SERT) of 130 nM. The Ki (H4) was > 10000 nM, the Ki (5HT3) was > 10000 nM and the Ki (5HT2B) was 826 nM. It also gave a Ki (5HT7A) of 747 nM, a Ki (H1) of 1450 nM and a Ki (D1) of 716 nM. For the same compound, the Ki (NOP) was 167 nM, the Ki (5HT2C) was 470 nM and the Ki (5HT1E) was > 10000 nM. For the same compound, the Ki (D2) was > 10000 nM, the Ki (5HT6) was > 10000 nM and the Ki (D5) was > 10000 nM. The Ki (DAT) was 287 nM, the Ki (5HT1A) was > 10000 nM and the Ki (5HT1D) was 1320 nM. For the same compound, the Ki (D3) was > 10000 nM.

With `Cc1cc(C(N)=O)cc(-c2cc(F)c(CNC3Cc4ccccc4C3)c(F)c2)c1` [1A] the Ki (5HT2A) was > 10000 nM, the Ki (MOR) was 8.3 nM and the Ki (D4) was 594 nM. The Ki (5HT5A) was > 10000 nM, the Ki (SERT) was 523 nM and the Ki (H4) was > 10000 nM. The Ki (5HT3) was > 10000 nM, the Ki (5HT2B) was > 10000 nM and the Ki (5HT7A) was > 10000 nM. The Ki (H1) was > 10000 nM, the Ki (D1) was 998 nM and the Ki (NOP) was > 10000 nM. The Ki (5HT2C) was > 10000 nM, the Ki (5HT1E) was > 10000 nM and the Ki (D2) was 6530 nM. For the same compound, the Ki (5HT6) was > 10000 nM, the Ki (D5) was > 10000 nM and the Ki (DAT) was 533 nM. The Ki (5HT1A) was > 10000 nM and the Ki (D3) was 466 nM.

With `Cc1cc(C(N)=O)cc(-c2ccc(CNC3Cc4ccccc4C3)c(F)c2)c1` [2A] the Ki (5HT2A) was > 10000 nM, the Ki (MOR) was 9.2 nM and the Ki (D4) was 748 nM. The Ki (5HT5A) was > 10000 nM, the Ki (DOR) was 350 nM and the Ki (SERT) was 174 nM. For the same compound, the Ki (H4) was > 10000 nM, the Ki (5HT3) was > 10000 nM and the Ki (5HT2B) was > 10000 nM. The Ki (5HT7A) was 891 nM, the Ki (H1) was > 10000 nM and the Ki (D1) was 1270 nM. The Ki (NOP) was > 10000 nM, the Ki (5HT2C) was > 10000 nM and the Ki (5HT1E) was > 10000 nM. The Ki (D2) was > 10000 nM, the Ki (5HT6) was > 10000 nM and the Ki (D5) was > 10000 nM. The Ki (5HT1A) was > 10000 nM, the Ki (5HT1D) was 1660 nM and the Ki (D3) was 748 nM.

Compound `Cc1cc(-c2ccc(CNC3Cc4ccccc4C3)c(F)c2)cc(-c2ncn[nH]2)c1` [5A] has a Ki (5HT2A) of 1020 nM, a Ki (D4) of 5500 nM and a Ki (5HT5A) of 8040 nM. For the same compound, the Ki (SERT) was 116 nM, the Ki (H4) was > 10000 nM and the Ki (5HT3) was > 10000 nM. It also gave a Ki (5HT2B) of 948 nM, a Ki (5HT1B) of 3480 nM and a Ki (5HT7A) of 707 nM. The Ki (H1) was 6180 nM, the Ki (D1) was 1270 nM and the Ki (NOP) was 560 nM. The Ki (5HT2C) was > 10000 nM, the Ki (5HT1E) was > 10000 nM and the Ki (D2) was > 10000 nM. The Ki (5HT6) was > 10000 nM, the Ki (D5) was > 10000 nM and the Ki (DAT) was 303 nM. For the same compound, the Ki (5HT1A) was > 10000 nM, the Ki (5HT1D) was 1420 nM and the Ki (D3) was 181 nM.

From paper doi:10.1101/2024.10.12.618019v1 (biorxiv, 2024)
